Measured values as given in US12691101B2, “Compound and method for preventing or treating of respiratory diseases comprising the same as an active ingredient” (YONSEI UNIVERSITY, UNIVERSITY - INDUSTRY FOUNDATION (UIF), priority 2019, dated 2026).

How the values were obtained:
[1] = target: T1, hERG (Kv11.1) potassium channel (Homo sapiens, UniProt Q12809); assay: hERG potassium channel activity, thallium flux in HEK293T cells; type: cell-based
T1 construct: expressed in transfected cells
Protocol: (§1) (A) The inhibition of mouse pendrin (mPDS)-mediated Cl^−/I^− exchange activity by F56 was measured in CHO-K1 cells (mean±S.E., n=5). The indicated concentration of F56 was pretreated for 10 minutes. (B) Summary of dose-response for inhibition of the human pendrin (hPDS)-mediated (closed circle, FIG. (a), C) and mPDS-mediated (open circle) Cl^−/I^− exchange activity. (C-F) Representative traces of intracellular pH in CHO-K1 cells expressing SLC26A3, SLC26A6, SLC26A7 and SLC26A9 were shown. The application of Cl^− free solution induced intracellular alkalization by Cl^−/HCO3^− exchange. The indicated concentration of F56 was pretreated for 10 minutes. (G) the effect of F56 (100 μM) on the CFTR chloride channel activity was measured in FRT cells expressing human CFTR. […] (H) The effect of F56 (100 μM) on the AN01 chloride channel activity was measured in FRT cells expressing human AN01. […] (I) The effect of F56 on the hERG (Kv11.1) potassium channel activity was measured in HEK293T cells expressing human Kv11.1 (mean±S.E., n=4). […] (J) The effect of F56 on the 5-HT2A channel activity was measured in FRT cells expressing human 5-HT2A (mean±S.E., n=4). […]
(§2) (A) The effect of F10 (30 μM) on the CFTR channel was measured in FRT cells expressing human CFTR and mutant YFP. […] (B) The effect of F10 (30 μM) on the AN01 channel activity was measured in FRT cells expressing human and mutant YFP. […]

human CFTR = target: T2, human CFTR (Homo sapiens, UniProt P13569); assay: CFTR chloride channel activity in FRT cells; type: cell-based
T2 construct: expressed in transfected cells; host or cells: FRT (Fischer rat thyroid) cells; for F10 also expressing mutant YFP
Protocol: as §1, §2

AN01, CFTR and ENaC mRNA = assay: Real-time PCR of AN01, CFTR and ENaC mRNA in IL-4-treated HNE cells; type: cell-based, human; conditions: long-term treatment (F10: 120 hours)
Protocol: (§3) The total messenger RNA (mRNA) was extracted using TRIzol reagent (Invitrogen, Carlsbad, CA, USA), and was reverse-transcribed using a random hexamer primer, an oligo(dT) primer and SuperScript® III reverse transcriptase (Invitrogen). Quantitative real-time PCR was performed using StepOnePlus Real-Time PCR system (Applied Biosystems, Foster City, CA, USA) and Thunderbird SYBR qPCR mix (Tokyobo, Osaka, Japan). Thermal cycling conditions included the initial stage at 95° C. for 5 minutes, and subsequent 40 cycles at 95° C. for 10 seconds, at 55° C. for 20 seconds and at 72° C. for […].

PDS mRNA = assay: Real-time PCR of PDS mRNA in IL-4-treated HNE cells; type: cell-based, human; conditions: IL-4-treated HNE cells (F10: 120 hours after treatment)
Protocol: as §3

human AN01 = target: T3, human AN01 (Homo sapiens, UniProt Q5XXA6, DEL476-501); assay: AN01 chloride channel activity in FRT cells; type: cell-based
T3 construct: expressed in transfected cells; host or cells: FRT cells
Protocol: as §1, §2

[2] = 30 μM, FRT cells with mutant YFP

T1 sequence (Q12809 whole entry): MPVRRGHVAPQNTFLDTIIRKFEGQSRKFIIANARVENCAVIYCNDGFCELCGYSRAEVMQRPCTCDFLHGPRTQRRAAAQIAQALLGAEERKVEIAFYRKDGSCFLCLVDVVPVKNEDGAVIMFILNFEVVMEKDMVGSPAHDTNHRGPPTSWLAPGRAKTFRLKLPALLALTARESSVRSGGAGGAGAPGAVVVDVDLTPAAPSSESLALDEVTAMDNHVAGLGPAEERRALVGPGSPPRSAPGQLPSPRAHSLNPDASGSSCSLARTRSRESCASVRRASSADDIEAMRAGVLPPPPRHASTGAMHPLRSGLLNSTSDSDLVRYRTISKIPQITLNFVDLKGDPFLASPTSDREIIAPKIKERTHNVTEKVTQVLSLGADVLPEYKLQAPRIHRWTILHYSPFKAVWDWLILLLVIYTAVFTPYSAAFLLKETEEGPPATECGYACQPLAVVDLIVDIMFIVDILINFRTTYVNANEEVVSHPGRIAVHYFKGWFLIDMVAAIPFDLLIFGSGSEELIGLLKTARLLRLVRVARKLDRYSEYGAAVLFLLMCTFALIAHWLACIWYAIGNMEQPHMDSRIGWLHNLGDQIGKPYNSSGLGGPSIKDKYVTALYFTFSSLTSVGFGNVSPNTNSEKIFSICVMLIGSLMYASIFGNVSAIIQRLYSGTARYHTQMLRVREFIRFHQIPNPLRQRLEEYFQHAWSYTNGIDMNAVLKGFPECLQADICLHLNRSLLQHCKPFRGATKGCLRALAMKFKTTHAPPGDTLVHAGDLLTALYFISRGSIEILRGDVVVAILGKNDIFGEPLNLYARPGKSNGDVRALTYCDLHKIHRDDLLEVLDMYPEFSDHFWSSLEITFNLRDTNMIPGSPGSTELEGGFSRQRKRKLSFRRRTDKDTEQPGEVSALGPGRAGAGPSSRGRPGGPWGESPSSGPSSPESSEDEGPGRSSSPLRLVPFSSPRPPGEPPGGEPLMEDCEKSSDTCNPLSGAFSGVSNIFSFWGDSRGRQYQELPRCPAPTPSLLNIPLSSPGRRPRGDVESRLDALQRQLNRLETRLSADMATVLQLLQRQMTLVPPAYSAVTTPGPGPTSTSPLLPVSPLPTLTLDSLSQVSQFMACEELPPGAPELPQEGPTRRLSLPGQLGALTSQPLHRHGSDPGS
T2 sequence (P13569 whole entry): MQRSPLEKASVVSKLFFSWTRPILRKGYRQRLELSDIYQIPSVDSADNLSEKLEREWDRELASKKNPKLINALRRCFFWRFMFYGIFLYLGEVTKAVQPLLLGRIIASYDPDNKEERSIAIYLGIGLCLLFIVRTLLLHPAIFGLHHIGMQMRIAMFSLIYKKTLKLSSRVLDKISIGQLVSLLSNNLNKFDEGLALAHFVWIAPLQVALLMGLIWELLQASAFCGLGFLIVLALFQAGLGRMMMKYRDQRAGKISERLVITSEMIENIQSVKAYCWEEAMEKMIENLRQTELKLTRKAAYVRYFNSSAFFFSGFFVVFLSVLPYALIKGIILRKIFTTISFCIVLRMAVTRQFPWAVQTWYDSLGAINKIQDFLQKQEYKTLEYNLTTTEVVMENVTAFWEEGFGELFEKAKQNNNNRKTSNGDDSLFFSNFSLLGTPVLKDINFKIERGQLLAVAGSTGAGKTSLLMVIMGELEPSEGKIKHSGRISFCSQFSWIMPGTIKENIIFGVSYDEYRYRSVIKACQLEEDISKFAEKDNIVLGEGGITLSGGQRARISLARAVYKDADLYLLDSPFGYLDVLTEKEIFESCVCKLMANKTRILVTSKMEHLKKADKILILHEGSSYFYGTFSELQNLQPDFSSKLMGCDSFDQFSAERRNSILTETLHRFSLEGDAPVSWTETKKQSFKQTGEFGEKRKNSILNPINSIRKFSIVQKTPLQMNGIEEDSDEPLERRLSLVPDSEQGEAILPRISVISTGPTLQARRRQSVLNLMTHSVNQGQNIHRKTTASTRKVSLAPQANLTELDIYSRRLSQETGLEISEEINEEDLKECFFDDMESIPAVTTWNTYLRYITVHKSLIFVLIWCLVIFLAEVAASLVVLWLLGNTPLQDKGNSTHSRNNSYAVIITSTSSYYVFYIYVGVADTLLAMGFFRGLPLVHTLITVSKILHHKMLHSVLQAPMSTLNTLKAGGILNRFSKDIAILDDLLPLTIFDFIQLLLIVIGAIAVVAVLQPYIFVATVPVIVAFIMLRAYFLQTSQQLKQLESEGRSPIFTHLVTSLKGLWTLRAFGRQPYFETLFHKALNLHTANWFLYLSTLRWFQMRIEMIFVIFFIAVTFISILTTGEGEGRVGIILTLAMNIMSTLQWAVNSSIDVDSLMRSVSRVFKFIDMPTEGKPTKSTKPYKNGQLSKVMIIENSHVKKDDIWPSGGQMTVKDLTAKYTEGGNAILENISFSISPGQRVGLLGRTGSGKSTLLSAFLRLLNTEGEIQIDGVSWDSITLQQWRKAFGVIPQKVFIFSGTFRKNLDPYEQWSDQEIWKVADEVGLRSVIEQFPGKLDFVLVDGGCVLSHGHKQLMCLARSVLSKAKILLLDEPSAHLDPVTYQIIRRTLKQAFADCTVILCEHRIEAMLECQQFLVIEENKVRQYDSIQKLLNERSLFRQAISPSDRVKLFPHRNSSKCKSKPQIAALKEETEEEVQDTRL
T3 sequence (Q5XXA6 with tags, fused parts or gaps isoform Q5XXA6-5 DEL539-564): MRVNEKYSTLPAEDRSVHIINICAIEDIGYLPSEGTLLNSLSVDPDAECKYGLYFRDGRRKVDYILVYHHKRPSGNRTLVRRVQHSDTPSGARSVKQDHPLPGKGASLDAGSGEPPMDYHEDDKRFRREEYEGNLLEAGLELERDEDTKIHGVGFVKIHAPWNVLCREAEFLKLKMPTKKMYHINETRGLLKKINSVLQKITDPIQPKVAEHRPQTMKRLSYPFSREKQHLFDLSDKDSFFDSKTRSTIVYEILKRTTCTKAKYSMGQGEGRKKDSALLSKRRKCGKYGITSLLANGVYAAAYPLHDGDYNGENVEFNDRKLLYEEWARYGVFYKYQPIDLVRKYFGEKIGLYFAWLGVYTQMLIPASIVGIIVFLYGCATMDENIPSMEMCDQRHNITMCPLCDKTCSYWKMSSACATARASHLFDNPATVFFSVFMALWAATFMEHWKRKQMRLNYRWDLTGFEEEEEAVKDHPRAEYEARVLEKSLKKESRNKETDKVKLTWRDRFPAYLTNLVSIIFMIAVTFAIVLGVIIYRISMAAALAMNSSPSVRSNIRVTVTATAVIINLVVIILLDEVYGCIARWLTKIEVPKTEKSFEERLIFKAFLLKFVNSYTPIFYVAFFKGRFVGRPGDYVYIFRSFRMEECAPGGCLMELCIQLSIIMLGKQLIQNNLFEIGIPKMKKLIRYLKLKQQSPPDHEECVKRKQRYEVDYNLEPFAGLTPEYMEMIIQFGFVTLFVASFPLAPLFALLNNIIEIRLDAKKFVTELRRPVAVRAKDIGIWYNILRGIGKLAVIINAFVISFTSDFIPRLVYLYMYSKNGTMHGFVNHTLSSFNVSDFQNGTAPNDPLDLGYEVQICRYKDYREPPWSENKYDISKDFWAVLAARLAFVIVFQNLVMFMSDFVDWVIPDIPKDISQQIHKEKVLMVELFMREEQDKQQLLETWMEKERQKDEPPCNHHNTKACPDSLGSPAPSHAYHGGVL

| Structure (SMILES) | effect on hERG channel activity ([1]; 30 μM) | effect on CFTR channel activity (human CFTR; [2]) | mRNA expression of AN01, CFTR and ENaC (AN01, CFTR and ENaC mRNA) | PDS mRNA expression level (PDS mRNA) | effect on AN01 channel activity (human AN01; [2]) | effect on hERG channel activity ([1]; pretreated 10 minutes) | effect on CFTR activity (human CFTR; 100 μM, FRT cells, forskolin-activated) | effect on AN01 activity (human AN01; 100 μM, FRT cells, ATP-activated) |
| --- | --- | --- | --- | --- | --- | --- | --- | --- |
| CC(C)(C)c1ccc(C2=NC(=Cc3ccc[nH]3)C(=O)O2)cc1 [F10, 4-((1H-pyrrol-2-yl)methylene)-2-(4-(tert-butyl)phenyl)oxazol-5 (4H)-one] | did not show any effect | did not show any effect | did not show any effect | did not show any effect | did not show any effect |  |  |  |
| CC(C)(C)c1ccc(C2=NC(=Cc3cccs3)C(=O)O2)cc1 [F56, 2-(4-(tert-butyl)phenyl)-4-(thiophen-2-ylmethylene)oxazol-5(4H)-one] |  |  | did not change | without changes of the mRNA expression level |  | not affected | not affected | not affected |
